Laboratory results from the NIST ThermoML archive (doi:10.1016/j.jct.2005.12.012).
Several values for one entry are separate records, joined by “and”; a condition that tells them apart may be missing. Equal values may be shown once.

Conditions: Crystal

[Cl][Fe]([Cl])[Cl] [ferric chloride]
Conditions | vapor or sublimation pressure
383.9 K | 2.16e-05 kPa
386.3 K | 1.586e-05 kPa and 2.159e-05 kPa
389.3 K | 4.466e-05 kPa
389.6 K | 3.81e-05 kPa
389.7 K | 3.88e-05 kPa
390.4 K | 3.533e-05 kPa
392 K | 3.693e-05 kPa
392.7 K | 6.293e-05 kPa
393.8 K | 8.506e-05 kPa
394.2 K | 6.506e-05 kPa
394.8 K | 9.106e-05 kPa
394.9 K | 4.68e-05 kPa and 7.493e-05 kPa
395.1 K | 5.706e-05 kPa
395.4 K | 7.039e-05 kPa
396.6 K | 7.053e-05 kPa
398 K | 6.426e-05 kPa
398.6 K | 0.0001123 kPa
398.9 K | 0.0001423 kPa
399 K | 0.0001348 kPa and 0.0001191 kPa
401.2 K | 0.0001035 kPa
403 K | 0.0001712 kPa and 0.0001621 kPa and 0.0001703 kPa
403.2 K | 0.0002573 kPa
403.3 K | 0.0001812 kPa
404.5 K | 0.0002585 kPa
404.6 K | 0.000249 kPa
407.7 K | 0.0003298 kPa
408.6 K | 0.000386 kPa and 0.0003425 kPa
409.1 K | 0.000328 kPa
409.3 K | 0.0003058 kPa
409.8 K | 0.0004945 kPa
409.9 K | 0.0003822 kPa
412.7 K | 0.0003274 kPa
413.5 K | 0.0004797 kPa
413.9 K | 0.0005921 kPa and 0.0007087 kPa
414.1 K | 0.0005326 kPa
414.6 K | 0.0007097 kPa
416.4 K | 0.0004961 kPa and 0.0004838 kPa
418.4 K | 0.001063 kPa
419.3 K | 0.0007021 kPa and 0.001331 kPa
419.4 K | 0.0008229 kPa
419.8 K | 0.0006339 kPa
419.9 K | 0.0009366 kPa
421.9 K | 0.0009899 kPa
422.2 K | 0.001008 kPa
423.6 K | 0.001647 kPa
424 K | 0.00111 kPa
424.2 K | 0.001053 kPa
424.8 K | 0.001549 kPa
424.9 K | 0.001033 kPa
425.6 K | 0.001455 kPa
426.4 K | 0.001488 kPa
426.8 K | 0.001202 kPa
428.8 K | 0.001767 kPa and 0.001985 kPa
429.2 K | 0.002648 kPa
430.9 K | 0.002751 kPa
431.6 K | 0.001895 kPa
434 K | 0.003812 kPa
434.4 K | 0.003132 kPa
434.5 K | 0.004177 kPa
439.7 K | 0.006419 kPa
445.2 K | 0.008538 kPa
